Results taken from the NIST ThermoML archive (doi:10.1021/je600552b).
± gives the expanded uncertainty stated by the source.

Settings: 293.15 K; 101.33 kPa; Liquid; Falling or rolling sphere viscometry

Compound | kinematic viscosity | viscosity
CC/C=C\C/C=C\C/C=C\CCCCCCCC(=O)OCC(COC(=O)CCCCCCC/C=C\C/C=C\C/C=C\CC)OC(=O)CCCCCCC/C=C\C/C=C\C/C=C\CC [trilinolenin] | 2.37e-05 ± 8.1e-07 m2/s | –
CCCCCCCCCCCCCC(=O)OC [methyl tetradecanoate] | – | 4.442 ± 0.15 mPa·s
CC/C=C\C/C=C\C/C=C\CCCCCCCC(=O)O [all-cis-9,12,15-octadecatrienoic acid] | 1.55e-05 ± 7.9e-07 m2/s | –

Now from value to molecule:

kinematic viscosity | viscosity | Compound
– | 6.37 ± 0.22 mPa·s | CCCCCCCC/C=C\CCCCCCCC(=O)OC [methyl cis-9-octadecenoate]
– | 4.798 ± 0.17 mPa·s | CCCCC/C=C\C/C=C\CCCCCCCC(=O)OC [methyl (Z,Z)-9,12-octadecadienate]
– | 3.096 ± 0.11 mPa·s | CCCCCCCCCCCC(=O)OC [methyl dodecanoate]
– | 4.022 ± 0.14 mPa·s | CC/C=C\C/C=C\C/C=C\CCCCCCCC(=O)OC [methyl (Z,Z,Z)-9,12,15-octadecatrienoate]

Same assay, conditions: 303.15 K; 101.33 kPa; Liquid; Falling or rolling sphere viscometry

Compound | kinematic viscosity | viscosity
CC/C=C\C/C=C\C/C=C\CCCCCCCC(=O)OCC(COC(=O)CCCCCCC/C=C\C/C=C\C/C=C\CC)OC(=O)CCCCCCC/C=C\C/C=C\C/C=C\CC [trilinolenin] | 1.76e-05 ± 6.1e-07 m2/s | –
CCCCCCCCCCCCCC(=O)OC [methyl tetradecanoate] | – | 3.496 ± 0.12 mPa·s
CC/C=C\C/C=C\C/C=C\CCCCCCCC(=O)O [all-cis-9,12,15-octadecatrienoic acid] | 1.24e-05 ± 6.3e-07 m2/s | –

Other lines, results leading:

kinematic viscosity | viscosity | Compound
– | 4.922 ± 0.17 mPa·s | CCCCCCCC/C=C\CCCCCCCC(=O)OC [methyl cis-9-octadecenoate]
– | 3.822 ± 0.13 mPa·s | CCCCC/C=C\C/C=C\CCCCCCCC(=O)OC [methyl (Z,Z)-9,12-octadecadienate]
– | 2.475 ± 0.085 mPa·s | CCCCCCCCCCCC(=O)OC [methyl dodecanoate]
– | 3.301 ± 0.11 mPa·s | CC/C=C\C/C=C\C/C=C\CCCCCCCC(=O)OC [methyl (Z,Z,Z)-9,12,15-octadecatrienoate]

Same assay, conditions: 313.15 K; 101.33 kPa; Liquid; Falling or rolling sphere viscometry

Compound | kinematic viscosity | viscosity
CC/C=C\C/C=C\C/C=C\CCCCCCCC(=O)OCC(COC(=O)CCCCCCC/C=C\C/C=C\C/C=C\CC)OC(=O)CCCCCCC/C=C\C/C=C\C/C=C\CC [trilinolenin] | 1.36e-05 ± 4.6e-07 m2/s | –
CCCCCCCCCCCCCC(=O)OC [methyl tetradecanoate] | – | 2.841 ± 0.098 mPa·s
CCCCCCCCCCCCCCCC(=O)OC [methyl hexadecanoate] | – | 3.764 ± 0.13 mPa·s
CC/C=C\C/C=C\C/C=C\CCCCCCCC(=O)O [all-cis-9,12,15-octadecatrienoic acid] | 8.91e-06 ± 4.5e-07 m2/s | –

More lines, now with the values ahead:

kinematic viscosity | viscosity | Compound
– | 3.939 ± 0.14 mPa·s | CCCCCCCC/C=C\CCCCCCCC(=O)OC [methyl cis-9-octadecenoate]
– | 3.166 ± 0.11 mPa·s | CCCCC/C=C\C/C=C\CCCCCCCC(=O)OC [methyl (Z,Z)-9,12-octadecadienate]
– | 2.044 ± 0.07 mPa·s | CCCCCCCCCCCC(=O)OC [methyl dodecanoate]
– | 2.79 ± 0.096 mPa·s | CC/C=C\C/C=C\C/C=C\CCCCCCCC(=O)OC [methyl (Z,Z,Z)-9,12,15-octadecatrienoate]

Same assay, conditions: 323.15 K; 101.33 kPa; Liquid; Falling or rolling sphere viscometry

Compound | kinematic viscosity | viscosity
CC/C=C\C/C=C\C/C=C\CCCCCCCC(=O)OCC(COC(=O)CCCCCCC/C=C\C/C=C\C/C=C\CC)OC(=O)CCCCCCC/C=C\C/C=C\C/C=C\CC [trilinolenin] | 1.07e-05 ± 3.7e-07 m2/s | –
CCCCCCCCCCCCCC(=O)OC [methyl tetradecanoate] | – | 2.252 ± 0.078 mPa·s
CCCCCCCCCCCCCCCC(=O)OC [methyl hexadecanoate] | – | 2.931 ± 0.1 mPa·s
CC/C=C\C/C=C\C/C=C\CCCCCCCC(=O)O [all-cis-9,12,15-octadecatrienoic acid] | 7.26e-06 ± 3.7e-07 m2/s | –

Further lines, results first:

kinematic viscosity | viscosity | Compound
– | 3.097 ± 0.11 mPa·s | CCCCCCCC/C=C\CCCCCCCC(=O)OC [methyl cis-9-octadecenoate]
– | 2.55 ± 0.088 mPa·s | CCCCC/C=C\C/C=C\CCCCCCCC(=O)OC [methyl (Z,Z)-9,12-octadecadienate]
– | 1.643 ± 0.056 mPa·s | CCCCCCCCCCCC(=O)OC [methyl dodecanoate]
– | 2.299 ± 0.079 mPa·s | CC/C=C\C/C=C\C/C=C\CCCCCCCC(=O)OC [methyl (Z,Z,Z)-9,12,15-octadecatrienoate]

Same assay, conditions: 333.15 K; 101.33 kPa; Liquid; Falling or rolling sphere viscometry

Compound | kinematic viscosity | viscosity
CC/C=C\C/C=C\C/C=C\CCCCCCCC(=O)OCC(COC(=O)CCCCCCC/C=C\C/C=C\C/C=C\CC)OC(=O)CCCCCCC/C=C\C/C=C\C/C=C\CC [trilinolenin] | 8.68e-06 ± 3e-07 m2/s | –
CCCCCCCCCCCCCC(=O)OC [methyl tetradecanoate] | – | 1.819 ± 0.063 mPa·s
CCCCCCCCCCCCCCCC(=O)OC [methyl hexadecanoate] | – | 2.336 ± 0.08 mPa·s
CC/C=C\C/C=C\C/C=C\CCCCCCCC(=O)O [all-cis-9,12,15-octadecatrienoic acid] | 5.96e-06 ± 3e-07 m2/s | –

Other lines, results leading:

kinematic viscosity | viscosity | Compound
– | 2.472 ± 0.085 mPa·s | CCCCCCCC/C=C\CCCCCCCC(=O)OC [methyl cis-9-octadecenoate]
– | 2.078 ± 0.071 mPa·s | CCCCC/C=C\C/C=C\CCCCCCCC(=O)OC [methyl (Z,Z)-9,12-octadecadienate]
– | 1.383 ± 0.047 mPa·s | CCCCCCCCCCCC(=O)OC [methyl dodecanoate]
– | 1.862 ± 0.064 mPa·s | CC/C=C\C/C=C\C/C=C\CCCCCCCC(=O)OC [methyl (Z,Z,Z)-9,12,15-octadecatrienoate]

Same assay, conditions: 343.15 K; 101.33 kPa; Liquid; Falling or rolling sphere viscometry

Compound | kinematic viscosity | viscosity
CC/C=C\C/C=C\C/C=C\CCCCCCCC(=O)OCC(COC(=O)CCCCCCC/C=C\C/C=C\C/C=C\CC)OC(=O)CCCCCCC/C=C\C/C=C\C/C=C\CC [trilinolenin] | 7.18e-06 ± 2.5e-07 m2/s | –
CCCCCCCCCCCCCC(=O)OC [methyl tetradecanoate] | – | 1.521 ± 0.052 mPa·s
CCCCCCCCCCCCCCCC(=O)OC [methyl hexadecanoate] | – | 1.946 ± 0.067 mPa·s
CC/C=C\C/C=C\C/C=C\CCCCCCCC(=O)O [all-cis-9,12,15-octadecatrienoic acid] | 5.13e-06 ± 2.6e-07 m2/s | –

Next, values leading:

kinematic viscosity | viscosity | Compound
– | 2.054 ± 0.071 mPa·s | CCCCCCCC/C=C\CCCCCCCC(=O)OC [methyl cis-9-octadecenoate]
– | 1.755 ± 0.06 mPa·s | CCCCC/C=C\C/C=C\CCCCCCCC(=O)OC [methyl (Z,Z)-9,12-octadecadienate]
– | 1.173 ± 0.04 mPa·s | CCCCCCCCCCCC(=O)OC [methyl dodecanoate]
– | 1.596 ± 0.055 mPa·s | CC/C=C\C/C=C\C/C=C\CCCCCCCC(=O)OC [methyl (Z,Z,Z)-9,12,15-octadecatrienoate]
